Experimental data taken from patent US20230201151A1, “FORMULATIONS AND METHODS FOR TREATING ACUTE RESPIRATORY DISTRESS SYNDROME, ASTHMA, OR ALLERGIC RHINITIS” (UNIVERSITY OF FLORIDA RESEARCH FOUNDATION, INC., priority 2020, published 2023).

Assays:
HBECs = assay: TEER (epithelial barrier function) in differentiated HBECs, Ussing chamber; type: cell-based, human
Protocol: (§1) High individual variation in benzamil-sensitive current and TEER in HBECs. In an Ussing chamber-based experimental design, basal short-circuit current (Isc) and transepithelial electrical resistance (TEER) were recorded in differentiated HBECs from two lung donors that were grown on snapwells at an air-liquid interface for 28 to 35 days. Benzamil, a potent ENaC blocker was used to determine ENaC activity by calculating benzamil-sensitive Isc from changes in Isc that occur 15 minutes after adding 6 μM benzamil to the apical side of cells. […] Therefore, normalized data were used for all subsequent experiments for statistical analyses relating to FIGS. 13-18.
(§2) Basal treatment with cytokines [IL-13 (Abcam), IL-4 (PeproTech), TNF-α, IFN-γ and TGF-β1 (R&D Systems)] diluted in ALI medium started as early as day 14 post differentiation. Individual cytokines or cytokine cocktails were added to the culture medium at the desired concentrations and cells were incubated with the cytokines for a maximum of 16 days. ALI medium containing cytokines was changed every two days. Age-matched HBECs were assigned to the following treatment groups:
(§3) II Time-dependent studies: These studies were done using a concentration that ensured maximum inhibition of benzamil-sensitive Isc and TEER. HBECs were treated with respective cytokines for 2, 4, 6, 8, 10, 12, 14, or 16 days. IFN-γ, TNF-α or TGF-β1 at 1 ng/mL, IL-13 at 20 ng/mL and IL-4 at 2 ng/mL were used.
(§4) III Cytokine cocktails: were prepared using IFN-γ and TNF-α at 0.05, 0.5, 2.5, 5 and 10 ng/mL while TNF-α, IFN-γ and TGF-β1 at 1 ng/mL for each of the cytokines was added to the culture media for 7 days.
(§5) Ussing chamber experiments: Snapwells with differentiated HBECs that were incubated with cytokines or age-matched HBECs without cytokine exposure were mounted in Ussing chambers (Physiologic Instruments), and cells were either bathed in isotonic ringer solution containing 113.8 mM Na^+, 93.6 mM Cl^−, 25 mM HCO3^−, 5.2 mM K^+, 2.4 mM HPO4^−, 0.4 mM H2PO4^−, 1.2 mM Mg^2+, 1.2 mM Ca^2+, and 75 mM mannitol, or in AA-EC01. Glucose (5 mM) was added to the basal side, and chambers were bubbled with 95% O2 and 5% CO2 at 37° C. AA-EC01 contained 8 mM lysine, 8 mM tryptophan, 8 mM arginine, 8 mM glutamine, and 1.2 mM tyrosine, and AANC contained 8 mM leucine, 8 mM cysteine, 8 mM isoleucine, 8 mM aspartic acid and 8 mM glutamate (Ajinomoto), both diluted in an electrolyte solution containing 113.8 mM Na^t, 93.6 mM Cl^−, 25 mM HCO3^−, 5.2 mM K^+, 2.4 mM HPO4^−, 0.4 mM H2PO4^−, 1.2 mM Mg′, 1.2 mM Ca^2+ and 40 mM mannitol at pH 7.4 and 300 mOsm. Cell cultures were allowed to equilibrate in the Ussing chambers for 30 minutes while continuously voltage clamped to 0 mV. Basal short circuit current (Isc) and transepithelial electrical resistance (TEER) were recorded at 30-second intervals, and benzamil-sensitive Isc was calculated from the difference of basal Isc recorded after 30 minutes and Isc measured at 15 minutes after adding 6 μM of benzamil (ThermoFisher) to the apical side.
(§6) Statistical analysis: Results are presented as mean±standard error of mean (SEM). Analyses were performed with OriginPro 2018 software package. For each treatment group, values were tested for normal distribution using the Shapiro-Wilk normality test. […] The values were normalized to controls within the group, and data were pooled for comparison between groups. Kruskal-Wallis test was used for comparing the overall effect of ringer, AA-EC01 and AANC on benzamil-sensitive Isc and TEER, and Mann Whitney U test was used for pairwise comparison within the group and for comparison between basal values for each cytokine at zero ng/mL or day zero with each concentration and time period studied. P<0.05 was considered significant, and NS indicates not significant.

ENaC = assay: Benzamil-sensitive Isc (ENaC activity) in differentiated HBECs, Ussing chamber; type: cell-based, human
Protocol: as §1, §2, §3, §4, §5, §6

IL-13: Th2 cytokine (Abcam) added to HBEC culture medium
TEER, normalized to control (HBECs; IL-13 2 ng/mL, 14 days): 59.9±7.6% | TEER, normalized to control (maximum reduction) (HBECs; IL-13 4 ng/mL, 14 days): 41.3±6.9% | TEER, normalized to control (maximum reduction) (HBECs; IL-13 20 ng/mL, day 10): 48.7±3.6% | benzamil-sensitive Isc, normalized to control (ENaC; IL-13 0.1 ng/mL, 14 days): 50.9±9.6% | day by which benzamil-sensitive Isc was completely suppressed (ENaC; IL-13 20 ng/mL, 16-day incubation): ≤ 8 days | benzamil-sensitive Isc, of baseline value (ENaC; IL-13 20 ng/mL, day 2): 25.0±5% | concentration at which benzamil-sensitive Isc was completely abolished (ENaC; IL-13, 14 days): 8 ng/mL
